Measured values: article PMC2926596 (Nucleic Acids Research, 2010)

Target: T1, ϕ6 P2 (RNA-directed RNA polymerase, RdRP) (Pseudomonas phage phi6, UniProt P11124)
T1 sequence (P11124 1-665): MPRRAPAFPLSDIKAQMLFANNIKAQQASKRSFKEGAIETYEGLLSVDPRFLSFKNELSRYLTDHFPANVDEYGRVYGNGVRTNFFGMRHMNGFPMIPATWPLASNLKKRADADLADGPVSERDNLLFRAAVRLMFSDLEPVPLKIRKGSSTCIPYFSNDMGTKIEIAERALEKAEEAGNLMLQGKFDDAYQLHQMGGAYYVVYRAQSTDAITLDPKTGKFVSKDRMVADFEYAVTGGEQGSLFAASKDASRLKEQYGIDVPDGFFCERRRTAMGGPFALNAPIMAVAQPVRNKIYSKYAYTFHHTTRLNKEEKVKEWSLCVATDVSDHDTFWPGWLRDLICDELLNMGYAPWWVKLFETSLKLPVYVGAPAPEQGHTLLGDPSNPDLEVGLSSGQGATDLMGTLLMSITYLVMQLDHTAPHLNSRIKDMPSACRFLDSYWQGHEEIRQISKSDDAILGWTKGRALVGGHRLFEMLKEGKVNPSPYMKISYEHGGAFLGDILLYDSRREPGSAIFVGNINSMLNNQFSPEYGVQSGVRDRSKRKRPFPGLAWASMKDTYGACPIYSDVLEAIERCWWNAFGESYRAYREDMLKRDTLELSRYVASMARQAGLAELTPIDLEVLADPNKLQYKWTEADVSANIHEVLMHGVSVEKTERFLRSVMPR
Assay: tryptophan fluorescence quenching titration
Format: binding

Kd | Structure (SMILES)
271 ± 31 µM | Nc1nc2c(ncn2[C@@H]2O[C@H](COP(=O)(O)CP(=O)(O)OP(=O)(O)O)[C@@H](O)[C@H]2O)c(=O)[nH]1 [GMPCPP]
317 ± 31 µM | Nc1nc2c(ncn2[C@@H]2O[C@H](COP(=O)(O)OP(=O)(O)NP(=O)(O)O)[C@@H](O)[C@H]2O)c(=O)[nH]1 [GMPPNP]
